# Assay results reported in publication PMC7356228, “Alvaxanthone, a Thymidylate Synthase Inhibitor with Nematocidal and Tumoricidal Activities” (Molecules, 2020).
# Key:
# C. elegans = assay: Toxicity to C. elegans (population growth); details: Caenorhabditis elegans, read-out: LC50 (reduction of growth of the nematode population)
# Description: C. elegans was maintained as previously described. The effect of the compounds studied on C. elegans population growth was determined as earlier presented.
# [1] = tested on: BJ normal human skin fibroblasts; assay: Cytotoxicity, neutral red uptake (NR) assay; format: cell-based; details: Homo sapiens, Skin fibroblast; neutral red assay, BJ; read-out: IC50
# Description: (§1) Biological effect of alvaxanthone and rheediaxanthone B on normal (BJ) and cancer cells (U-118 MG and SCC-15) was estimated using two viability assays, the neutral red uptake (NR) and tetrazolium salts reduction (XTT) assays.
# (§2) Human glioblastoma cells U-118 MG (ATCC® HTB-15), human squamous carcinoma cells SCC-15 (ATCC® CRL-1623), and normal human skin fibroblasts (ATCC® CRL-2522) were grown, their morphology checked, and number and viability estimated as earlier presented.
# (§3) Influence of selected compounds on cells was tested by performing the cytotoxicity (NR and XTT) assays, proliferation assay, cell adhesion assay, cell migration assay, determination of intracellular ATP level, and apoptosis assay as previously reported.
# [2] = Cytotoxicity, neutral red uptake (NR) assay; format: cell-based, human; details: human, BJ normal skin fibroblasts; NR assay, 40 µM, 48 h, fibroblasts
# Description: as §1, §2, §3
# [3] = tested on: thymidylate synthase (TS); assay: Time dependence of TS inhibition (initial results); format: biochemical; details: suggesting slow-binding character
# Excerpt: (§4) The recombinant human, rat, mouse, T. spiralis and C. elegans TS proteins were produced, purified and separated into phosphorylated and non-phosphorylated fraction, as previously described. TS activity was monitored, following tritium release from [5-^3H]dUMP, and its inhibition studied as earlier reported.
# TsTS = TsTS (Trichinella spiralis, UniProt Q9NDD3); assay: Inhibition of TS-catalyzed reaction (tritium release from [5-3H]dUMP); format: biochemical, T. spiralis; details: for remaining activity at 10 µM: compound 10 µM; for remaining activity at 10 µM / remaining activity at 100 µM: 20 µM dUMP; for remaining activity at 100 µM: compound 100 µM
# Excerpt: as §4
# BJ cells = assay: Intracellular ATP level (CellTiterGlo); format: cell-based, human; details: 48-h incubation, normal fibroblasts
# Description: (§5) Figure 4 Changes of caspase-3/7 activities and intracellular ATP level in BJ, U-118 MG, and SCC-15 cells after 48-h incubation with 5–40 µM alvaxanthone or rheediaxanthone B. Median results are presented of three independent experiments, each performed in triplicate. The whiskers are lower (25%) and upper (75%) quartile ranges.
# (§6) On the other hand, rheediaxanthone B caused a reduction of ATP level down to around 30% in glioma cells and fibroblasts, and to 20% in squamous carcinoma cells (Figure 4). In general, with increasing Caspase-3/7 activity the ATP level was decreasing, in accord with the results of Reference.
# as §3
# U-118 MG cells = assay: Intracellular ATP level (CellTiterGlo); format: cell-based, human; details: 48-h incubation, glioma cells
# Description: as §5, §6, §3
# SCC-15 cells = assay: Intracellular ATP level (CellTiterGlo); format: cell-based, human; details: 48-h incubation, SCC-15
# Description: as §5, §6, §3
# [4] = tested on: human oral squamous carcinoma cells (HSC-2 cell line); design: method as in Hou et al. [41]; details: 24 h incubation; ref Hou et al. [41]; cited from earlier work
# Sequence of TsTS (Q9NDD3 entry or part of it): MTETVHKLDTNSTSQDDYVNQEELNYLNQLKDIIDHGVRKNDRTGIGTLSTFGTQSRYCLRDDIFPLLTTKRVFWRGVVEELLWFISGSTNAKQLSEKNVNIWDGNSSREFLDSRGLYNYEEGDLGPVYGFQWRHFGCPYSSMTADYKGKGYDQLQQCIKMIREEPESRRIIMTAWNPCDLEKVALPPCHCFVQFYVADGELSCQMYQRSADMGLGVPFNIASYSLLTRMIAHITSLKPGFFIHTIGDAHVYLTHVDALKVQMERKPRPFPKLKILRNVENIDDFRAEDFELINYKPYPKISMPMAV
smiles,measurement,setting,value
"C=CC(C)(C)c1c(O)cc2oc3c(O)c(O)cc(CC=C(C)C)c3c(=O)c2c1O [Alvaxanthone (15), Alvaxanthone]",LC50,C. elegans,4.6 ± 0.57 µM
same,IC50,[1],15.8 µM
same,"viability at 48 h, 40 µM",[2],35%
same,character of inhibition,[3],time-dependent inhibition
same,IC50,"TsTS; IC50, 20 µM dUMP and 50 µM meTHF, mean ± S.E.M. (N=3) for alvaxanthone, rheediaxanthone B not repeated",41.9 ± 8.1 µM
same,remaining activity at 10 µM,TsTS; 50 µM meTHF,97%
same,remaining activity at 10 µM,TsTS; 250 µM meTHF,98%
same,remaining activity at 100 µM,TsTS; 50 µM meTHF,14%
same,remaining activity at 100 µM,TsTS; 250 µM meTHF,47%
same,change of ATP level,BJ cells,slight decrease
same,change of ATP level,U-118 MG cells,unaltered
same,change of ATP level,SCC-15 cells,dramatically reduced
same,IC50,[4],22 µM
